Tests used:
[1] = target: T1, Mitogen-activated protein kinase 12 (Homo sapiens) (UniProt P53778); test: Selectivity interaction (Kinase panel (literature)) EUB0001199aCl MAPK12; conditions: at 1 µM
T1 sequence (whole entry): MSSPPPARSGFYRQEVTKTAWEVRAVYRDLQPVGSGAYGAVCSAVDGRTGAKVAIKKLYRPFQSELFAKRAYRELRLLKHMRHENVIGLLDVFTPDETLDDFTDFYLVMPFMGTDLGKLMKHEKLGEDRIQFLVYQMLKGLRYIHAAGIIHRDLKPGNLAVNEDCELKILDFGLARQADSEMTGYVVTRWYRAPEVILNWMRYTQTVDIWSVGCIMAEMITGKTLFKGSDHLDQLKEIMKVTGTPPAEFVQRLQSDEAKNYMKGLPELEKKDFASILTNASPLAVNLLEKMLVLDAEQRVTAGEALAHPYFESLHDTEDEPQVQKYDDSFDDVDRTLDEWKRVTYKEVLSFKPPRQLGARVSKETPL

[2] = target: Casein kinase I isoform delta (Homo sapiens, UniProt P48730); test: Selectivity interaction (KinomeScan (DiscoverX)) EUB0000666a CSNK1D; conditions: at 10 µM
[3] = target: T2, Membrane-associated tyrosine- and threonine-specific cdc2-inhibitory kinase (Homo sapiens) (UniProt Q99640); test: Selectivity interaction (KinomeScan (DiscoverX)) EUB0000229b PKMYT1; conditions: at 10 µM
T2 sequence (whole entry): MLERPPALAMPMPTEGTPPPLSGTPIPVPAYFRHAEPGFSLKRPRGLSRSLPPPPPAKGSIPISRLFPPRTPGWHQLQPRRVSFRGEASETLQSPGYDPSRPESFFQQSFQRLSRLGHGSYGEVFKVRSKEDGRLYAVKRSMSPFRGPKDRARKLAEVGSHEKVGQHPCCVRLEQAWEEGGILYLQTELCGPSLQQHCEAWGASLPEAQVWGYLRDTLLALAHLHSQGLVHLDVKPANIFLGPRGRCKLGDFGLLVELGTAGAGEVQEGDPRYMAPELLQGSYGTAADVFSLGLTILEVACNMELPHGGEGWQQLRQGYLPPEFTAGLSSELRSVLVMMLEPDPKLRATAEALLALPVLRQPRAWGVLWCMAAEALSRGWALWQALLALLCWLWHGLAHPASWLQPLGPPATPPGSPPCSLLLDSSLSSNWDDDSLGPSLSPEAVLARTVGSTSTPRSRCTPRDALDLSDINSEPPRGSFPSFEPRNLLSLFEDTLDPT

[4] = target: Beta-1 adrenergic receptor (Homo sapiens, UniProt P08588); test: Selectivity interaction (Eurofins CEREP Diversity Profile (receptors and ion channels)) EUB0000279b ADRB1; conditions: at 10 µM
[5] = target: Cyclin-dependent kinase 9 (Homo sapiens, UniProt P50750); test: Selectivity interaction (SelectScreen Kinase Profiling (Thermo Fisher Scientific)) EUB0001558a CDK9; conditions: at 1 µM
[6] = target: Serine/threonine-protein kinase PAK 4 (Homo sapiens, UniProt O96013); conditions: at 10 µM
[7] = target: Transcription initiation factor TFIID subunit 1 (Homo sapiens) (UniProt P21675); test: Selectivity interaction (Bromodomain panel (DSF asssay)) EUB0000270b TAF1
[8] = target: 5'-AMP-activated protein kinase catalytic subunit alpha-1 (Homo sapiens, UniProt Q13131); test: Selectivity interaction (ActivX KiNativ screen (kinase selectivity in THP-1 cell lysates)) EUB0000639a PRKAA1; assay type: subcellular; conditions: lysate, at 0.2 µM
[9] = target: T3, Serine/threonine-protein kinase D3 (Homo sapiens) (UniProt O94806); test: Selectivity interaction (Kinase screening (Nanosyn)) EUB0000604a PRKD3
T3 sequence (whole entry): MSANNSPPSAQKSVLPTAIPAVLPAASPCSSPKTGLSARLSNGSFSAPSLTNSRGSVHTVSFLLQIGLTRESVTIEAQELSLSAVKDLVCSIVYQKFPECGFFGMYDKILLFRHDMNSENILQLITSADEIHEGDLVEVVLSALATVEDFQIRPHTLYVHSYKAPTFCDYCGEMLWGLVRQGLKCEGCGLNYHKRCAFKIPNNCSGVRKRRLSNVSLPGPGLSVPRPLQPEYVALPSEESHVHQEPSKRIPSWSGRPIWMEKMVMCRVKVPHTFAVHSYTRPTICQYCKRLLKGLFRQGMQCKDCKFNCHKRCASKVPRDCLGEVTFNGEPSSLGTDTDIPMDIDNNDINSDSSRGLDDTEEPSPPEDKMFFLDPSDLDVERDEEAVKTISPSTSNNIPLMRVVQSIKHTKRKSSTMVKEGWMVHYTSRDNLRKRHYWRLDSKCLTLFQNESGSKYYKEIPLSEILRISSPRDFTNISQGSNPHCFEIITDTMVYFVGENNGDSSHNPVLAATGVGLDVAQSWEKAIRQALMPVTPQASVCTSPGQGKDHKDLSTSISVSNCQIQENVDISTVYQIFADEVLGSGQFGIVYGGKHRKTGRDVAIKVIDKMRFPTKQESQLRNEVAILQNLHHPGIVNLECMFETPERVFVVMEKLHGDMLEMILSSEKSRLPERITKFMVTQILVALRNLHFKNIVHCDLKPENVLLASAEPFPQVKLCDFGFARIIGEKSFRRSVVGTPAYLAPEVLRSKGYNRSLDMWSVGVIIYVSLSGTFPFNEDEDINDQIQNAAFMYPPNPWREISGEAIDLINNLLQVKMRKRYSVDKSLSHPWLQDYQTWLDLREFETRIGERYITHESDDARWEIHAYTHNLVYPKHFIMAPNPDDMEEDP

[10] = target: Ribosomal protein S6 kinase alpha-2 (Homo sapiens) (UniProt Q15349); test: Selectivity interaction (Kinase screening (Nanosyn)) EUB0000604a RPS6KA2
[11] = target: Serine/threonine-protein kinase SIK2 (Homo sapiens) (UniProt Q9H0K1); conditions: at 10 µM
[12] = target: Mitogen-activated protein kinase kinase kinase 11 (Homo sapiens) (UniProt Q16584); test: Selectivity interaction (ActivX KiNativ screen (ex vivo kinase selectivity in human PBMCs)) EUB0001619a MAP3K11; assay type: cell-based; conditions: PBMC, at 1 µM
[13] = target: Ribosomal protein S6 kinase beta-1 (Homo sapiens, UniProt P23443); test: Selectivity interaction (ProQinase) EUB0000171b RPS6KB1
Chain of Ribosomal protein S6 kinase beta-1 (P23443 whole entry, looked up): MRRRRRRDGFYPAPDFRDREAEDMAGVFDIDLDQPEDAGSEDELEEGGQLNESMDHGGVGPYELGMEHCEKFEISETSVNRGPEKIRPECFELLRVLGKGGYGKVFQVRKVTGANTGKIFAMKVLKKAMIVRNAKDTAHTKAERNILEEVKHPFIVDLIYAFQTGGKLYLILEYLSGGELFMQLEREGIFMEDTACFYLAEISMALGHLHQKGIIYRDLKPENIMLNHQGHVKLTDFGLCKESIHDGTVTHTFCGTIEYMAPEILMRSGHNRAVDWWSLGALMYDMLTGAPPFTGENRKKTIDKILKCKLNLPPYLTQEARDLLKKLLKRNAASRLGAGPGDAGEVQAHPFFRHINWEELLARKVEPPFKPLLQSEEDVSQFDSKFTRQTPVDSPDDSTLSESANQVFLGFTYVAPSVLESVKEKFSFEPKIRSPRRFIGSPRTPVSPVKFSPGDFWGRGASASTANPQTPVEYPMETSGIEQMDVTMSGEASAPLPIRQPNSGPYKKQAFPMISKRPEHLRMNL

Chain of Ribosomal protein S6 kinase alpha-2 (Homo sapiens) (Q15349 whole entry): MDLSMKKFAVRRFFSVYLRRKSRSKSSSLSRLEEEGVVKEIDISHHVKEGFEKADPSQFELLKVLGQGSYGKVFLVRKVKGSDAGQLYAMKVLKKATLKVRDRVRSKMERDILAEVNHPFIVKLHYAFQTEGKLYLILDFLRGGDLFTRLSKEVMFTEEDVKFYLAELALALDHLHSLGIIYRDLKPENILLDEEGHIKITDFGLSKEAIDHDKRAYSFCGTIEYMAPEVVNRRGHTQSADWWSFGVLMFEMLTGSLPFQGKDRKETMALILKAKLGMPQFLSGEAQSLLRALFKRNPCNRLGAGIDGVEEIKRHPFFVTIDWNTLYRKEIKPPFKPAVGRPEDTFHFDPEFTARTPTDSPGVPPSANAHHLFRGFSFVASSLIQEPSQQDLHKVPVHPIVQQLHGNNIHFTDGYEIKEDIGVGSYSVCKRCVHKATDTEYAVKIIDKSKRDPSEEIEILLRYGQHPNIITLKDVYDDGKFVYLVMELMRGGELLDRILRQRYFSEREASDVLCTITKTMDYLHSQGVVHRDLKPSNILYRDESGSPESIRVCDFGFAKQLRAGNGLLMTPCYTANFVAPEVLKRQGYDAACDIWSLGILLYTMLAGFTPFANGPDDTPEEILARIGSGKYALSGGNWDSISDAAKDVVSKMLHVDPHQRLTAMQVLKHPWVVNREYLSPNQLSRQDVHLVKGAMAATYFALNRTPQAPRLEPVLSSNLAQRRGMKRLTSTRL
Chain of Mitogen-activated protein kinase kinase kinase 11 (Homo sapiens) (Q16584 whole entry, looked up): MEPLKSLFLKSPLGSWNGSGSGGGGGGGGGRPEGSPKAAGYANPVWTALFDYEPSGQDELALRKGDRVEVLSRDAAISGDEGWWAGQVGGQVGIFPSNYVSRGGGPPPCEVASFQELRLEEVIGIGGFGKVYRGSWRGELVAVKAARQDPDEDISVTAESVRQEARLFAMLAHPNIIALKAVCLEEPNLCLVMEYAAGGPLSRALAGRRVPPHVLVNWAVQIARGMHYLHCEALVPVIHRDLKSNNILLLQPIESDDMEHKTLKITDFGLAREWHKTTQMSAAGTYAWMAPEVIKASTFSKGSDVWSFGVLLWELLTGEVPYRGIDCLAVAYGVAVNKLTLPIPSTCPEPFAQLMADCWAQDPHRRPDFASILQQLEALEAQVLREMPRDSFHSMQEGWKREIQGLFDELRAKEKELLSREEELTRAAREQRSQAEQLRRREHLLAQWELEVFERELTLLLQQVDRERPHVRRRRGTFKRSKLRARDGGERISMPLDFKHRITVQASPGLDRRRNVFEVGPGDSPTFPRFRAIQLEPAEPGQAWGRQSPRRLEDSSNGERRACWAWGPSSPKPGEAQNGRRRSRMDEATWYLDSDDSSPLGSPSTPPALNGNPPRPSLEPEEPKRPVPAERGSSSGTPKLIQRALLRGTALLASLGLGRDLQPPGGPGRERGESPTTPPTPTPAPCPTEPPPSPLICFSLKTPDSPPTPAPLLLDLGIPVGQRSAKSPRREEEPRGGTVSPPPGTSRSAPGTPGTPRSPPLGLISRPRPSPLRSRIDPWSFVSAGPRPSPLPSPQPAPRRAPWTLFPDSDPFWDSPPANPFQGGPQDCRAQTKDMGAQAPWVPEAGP
Chain of Serine/threonine-protein kinase SIK2 (Homo sapiens) (Q9H0K1 whole entry, looked up): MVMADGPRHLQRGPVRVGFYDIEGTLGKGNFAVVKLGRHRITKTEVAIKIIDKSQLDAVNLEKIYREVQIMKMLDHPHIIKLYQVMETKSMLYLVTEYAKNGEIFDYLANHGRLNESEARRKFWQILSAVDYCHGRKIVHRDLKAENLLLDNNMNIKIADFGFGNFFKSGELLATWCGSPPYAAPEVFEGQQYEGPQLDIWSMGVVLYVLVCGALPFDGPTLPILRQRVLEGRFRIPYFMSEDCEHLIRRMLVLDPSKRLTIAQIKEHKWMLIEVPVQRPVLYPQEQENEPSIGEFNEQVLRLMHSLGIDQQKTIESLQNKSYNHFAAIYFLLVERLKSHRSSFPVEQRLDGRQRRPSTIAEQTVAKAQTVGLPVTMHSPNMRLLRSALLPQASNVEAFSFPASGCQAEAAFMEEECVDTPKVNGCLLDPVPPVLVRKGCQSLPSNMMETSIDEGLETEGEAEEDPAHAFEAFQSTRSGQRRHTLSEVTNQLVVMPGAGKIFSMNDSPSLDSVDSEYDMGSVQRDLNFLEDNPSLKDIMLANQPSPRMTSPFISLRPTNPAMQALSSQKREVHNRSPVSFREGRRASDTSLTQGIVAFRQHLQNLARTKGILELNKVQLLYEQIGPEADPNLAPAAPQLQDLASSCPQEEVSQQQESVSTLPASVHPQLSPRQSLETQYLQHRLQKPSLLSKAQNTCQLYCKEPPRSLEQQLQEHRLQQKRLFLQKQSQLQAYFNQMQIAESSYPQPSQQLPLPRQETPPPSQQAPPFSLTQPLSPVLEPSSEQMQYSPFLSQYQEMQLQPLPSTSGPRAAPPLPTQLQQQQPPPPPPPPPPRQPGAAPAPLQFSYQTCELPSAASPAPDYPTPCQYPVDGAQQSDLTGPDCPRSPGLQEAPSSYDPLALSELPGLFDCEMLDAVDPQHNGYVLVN
Chain of Cyclin-dependent kinase 9 (P50750 whole entry): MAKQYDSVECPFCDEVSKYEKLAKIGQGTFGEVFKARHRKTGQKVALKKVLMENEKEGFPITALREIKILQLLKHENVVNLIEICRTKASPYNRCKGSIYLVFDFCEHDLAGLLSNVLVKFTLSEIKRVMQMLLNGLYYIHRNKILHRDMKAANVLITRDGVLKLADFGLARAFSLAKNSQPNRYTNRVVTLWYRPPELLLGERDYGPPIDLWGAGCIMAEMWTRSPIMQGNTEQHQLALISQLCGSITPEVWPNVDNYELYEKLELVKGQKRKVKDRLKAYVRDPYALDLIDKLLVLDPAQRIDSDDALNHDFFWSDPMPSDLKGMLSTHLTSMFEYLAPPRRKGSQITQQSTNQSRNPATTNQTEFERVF
Chain of Beta-1 adrenergic receptor (P08588 whole entry, looked up): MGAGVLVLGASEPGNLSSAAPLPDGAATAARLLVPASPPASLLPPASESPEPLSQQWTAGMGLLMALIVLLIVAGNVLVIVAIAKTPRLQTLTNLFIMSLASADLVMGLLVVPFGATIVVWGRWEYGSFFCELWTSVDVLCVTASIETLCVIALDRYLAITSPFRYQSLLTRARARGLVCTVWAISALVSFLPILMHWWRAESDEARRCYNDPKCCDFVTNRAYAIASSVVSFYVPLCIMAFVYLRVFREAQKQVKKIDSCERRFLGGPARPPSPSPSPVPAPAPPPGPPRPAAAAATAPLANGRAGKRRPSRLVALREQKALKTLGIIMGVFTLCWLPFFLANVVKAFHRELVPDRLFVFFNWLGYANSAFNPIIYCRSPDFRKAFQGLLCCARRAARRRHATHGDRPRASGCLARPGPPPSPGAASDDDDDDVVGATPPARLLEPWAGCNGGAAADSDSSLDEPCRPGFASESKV
Chain of 5'-AMP-activated protein kinase catalytic subunit alpha-1 (Q13131 whole entry, looked up): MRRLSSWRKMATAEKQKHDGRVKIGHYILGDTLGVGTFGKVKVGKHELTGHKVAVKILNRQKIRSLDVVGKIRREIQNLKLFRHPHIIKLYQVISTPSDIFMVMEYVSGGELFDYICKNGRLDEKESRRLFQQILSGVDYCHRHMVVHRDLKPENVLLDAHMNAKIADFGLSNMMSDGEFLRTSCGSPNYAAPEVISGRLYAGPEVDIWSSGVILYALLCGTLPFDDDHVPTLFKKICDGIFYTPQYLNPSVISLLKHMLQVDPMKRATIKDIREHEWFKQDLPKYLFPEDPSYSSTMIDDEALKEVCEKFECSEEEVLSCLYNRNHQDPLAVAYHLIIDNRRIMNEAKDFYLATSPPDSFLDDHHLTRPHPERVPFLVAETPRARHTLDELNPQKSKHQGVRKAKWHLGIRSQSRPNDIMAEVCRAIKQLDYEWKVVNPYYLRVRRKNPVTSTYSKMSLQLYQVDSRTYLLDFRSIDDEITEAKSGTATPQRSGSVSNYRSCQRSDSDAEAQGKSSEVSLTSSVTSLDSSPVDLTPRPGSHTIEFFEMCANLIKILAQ
Chain of Serine/threonine-protein kinase PAK 4 (O96013 whole entry, looked up): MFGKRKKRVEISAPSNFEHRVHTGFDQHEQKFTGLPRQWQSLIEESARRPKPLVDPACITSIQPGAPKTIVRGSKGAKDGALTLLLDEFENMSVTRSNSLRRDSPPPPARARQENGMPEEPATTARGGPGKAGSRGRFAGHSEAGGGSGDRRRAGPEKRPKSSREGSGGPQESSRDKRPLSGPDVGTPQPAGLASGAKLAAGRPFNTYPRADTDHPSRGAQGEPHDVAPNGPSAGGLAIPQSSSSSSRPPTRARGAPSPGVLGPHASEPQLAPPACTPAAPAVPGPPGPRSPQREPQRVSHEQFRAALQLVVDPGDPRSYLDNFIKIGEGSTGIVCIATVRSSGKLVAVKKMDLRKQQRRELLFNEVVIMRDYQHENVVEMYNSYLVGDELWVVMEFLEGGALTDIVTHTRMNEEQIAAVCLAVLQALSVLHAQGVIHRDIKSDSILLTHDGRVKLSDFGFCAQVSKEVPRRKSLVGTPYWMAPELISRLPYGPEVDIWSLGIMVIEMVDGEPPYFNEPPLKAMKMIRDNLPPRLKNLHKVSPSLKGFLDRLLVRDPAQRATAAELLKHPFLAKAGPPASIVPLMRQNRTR

Q: How did the % of inhibition [1] turn out when CN1Cc2nccc(-c3cn(C)nc3-c3ccc(F)cc3)c2C1=O was run?
A: The % of inhibition was 10%.

Q: With O=C(NOC[C@H](O)CO)c1ccc(F)c(F)c1Nc1ccc(I)cc1F as the compound, how does the % of control [2] read?
A: The % of control was 100%.

Q: COc1cc(N(C)c2ccnc3ccc(C(F)(F)F)cc23)cc(OC)c1OC was tested. Which % binding [3] did it give?
A: The % binding was 94%.

Q: With CC(=O)c1cc(-c2ccccc2OCC2CC2)c2ncccn12 as the compound, how does the % of control [4] read?
A: The % of control was 87%.

Q: For CC(C)(O)[C@H](F)CN1Cc2cc(NC(=O)c3cnn4cccnc34)c(N3CCOCC3)cc2C1=O, which % of inhibition [5] is on record?
A: The % of inhibition was 74.5%.

Q: CCN(CC)CCCCNc1ncc2cc(-c3cc(OC)cc(OC)c3)c(NC(=O)NC(C)(C)C)nc2n1 was tested. Which % of control [6] did it give?
A: The % of control was 100%.

Q: For Cc1cc(CN)cc(C)c1-c1ncn(C)c1-c1cncn1C, which dTM [7] is on record?
A: Its dTM is -1.15 K.

Q: How did the % of inhibition [8] turn out when CC[C@@H]1[C@H](F)C(=O)N[C@@H]1COc1nccc2cc(C(N)=O)c(OC)cc12 [ZIMLOVISERTIB] was run?
A: The % of inhibition was -4.3%.

Q: With Cc1cnc(Nc2ccc(F)cc2Cl)nc1-c1c[nH]c(C(=O)N[C@H](CO)c2cccc(Cl)c2)c1 as the compound, how does the % of inhibition [9] read?
A: The % of inhibition was 21%.

Q: What about the % of inhibition [10] of the same compound?
A: Its % of inhibition is 7%.

Q: With Cc1cc([C@@H](C)Nc2ccccc2C(=O)O)c2nc(N3CCOCC3)cc(=O)n2c1 [AZD-6482] as the compound, how does the % of control [11] read?
A: Its % of control is 100%.

Q: With N#Cc1cccc(-c2c[nH]c3ncnc(N4CCOCC4)c23)c1 as the compound, how does the % of inhibition [12] read?
A: The % of inhibition was 20%.

Q: Which % of control ([13]; at 1 µM) does the source give for C=CC(=O)Nc1cccc(C(=O)Nc2ccc(Nc3cc(-c4[nH]c(SC)nc4C)ccn3)cc2)c1 here?
A: Its % of control is 105%.

Q: And the % of control ([13]; at 5 µM)?
A: The % of control was 87%.

From ChEMBL document CHEMBL5465560, “Selectivity Literature for EUbOPEN Chemogenomic Library” (2024)
